Assay results: patent US20240285615A1, “MEDICAMENTS COMPRISING GLYCOSIDASE INHIBITORS” (priority 2021, published 2024)
Like-named read-outs stand apart in the source and are kept apart here.

Key:
[1] = Phase 1 Part 2: cerebrospinal fluid (CSF) pharmacokinetics after multiple BID doses; type: in vivo, human; conditions: for Cmax / AUC / half-life / Tmax: human, oral, CSF; for AUC: read-out: AUC0-tau; for Tmax: median (min, max)
Source text: Day 1: Twice a day (BID) dosing. Day 2: No dosing. Day 3-11: 9 days of BID dosing. Day 12: one dose in the morning.

[2] = tested on: transgenic mice (Line 61) overexpressing wildtype human alpha-synuclein; assay: In vivo treatment efficacy on Parkinson disease (PD) model (Line 61); conditions: Line 61 mice, daily oral gavage for 24 weeks
Source text: The transgenic mice (Line 61) which overexpresses wildtype human alpha-synuclein protein (hAsyn) under the regulatory control of the murine Thy-1 promoter is a widely used Parkinson disease (PD) animal model. […] In addition, motor deficits such as lack of coordination, diminution of strength, and unbalance are also observed from 2 to 4 months of age (Fleming et al. 2004, J Neurosci 24 (42): 9434-40). Treatment effect of compound of formula (I) is based on the assessment of the behaviour (motoric performance), as well as the quantification of aggregated hAsyn and pser129-Asyn deposits by histology and by the biochemical determination of aggregated hAsyn present in the brain “insoluble fraction” of treated animals.
For this, transgenic Line 61 mice (4 weeks of age) and age/sex-matched non-transgenic littermates are first tested in the Irwin testing battery test, rotarod, wire suspension, beam walk and pasta gnawing test at baseline. […] Right hemibrains are embedded in OCT medium and 10 μm cryosections are collected to quantify the level of hAsyn and pser129-Asyn deposits by immunohistochemistry in the hippocampus and in the cortex of treated animals. […]

DSS colitis model = assay: In vivo treatment efficacy on DSS colitis model; conditions: balb/c mice, oral gavage for 21 days, 5% DSS
Description: The dextran sodium sulfate (DSS) is a negatively charged sulfated polysaccharide of approximately 36-50 kDa which induces colitis when administered at 5% (weight/volume) in drinking water for several days (Okayasu I. et al. (1990) Gastroenterology 98:694-702).
Adult (balb/c) mice are randomized and are allowed to a period of acclimatization for one week. After this, the compound of formula (I) or vehicle is administered for 21 days by oral gavage, starting 2 weeks before the DSS treatment (Day −14) and continuing during DSS treatment and until the end of the experiment (Day +9). At Day 0, animals are getting access to a 5% (weight/volume) DSS solution in drinking water until Day +5. The DSS solution is then removed and replaced by drinking water for 4 more days until Day +9. From Day 0 until the end of the experiment […], animals are monitored daily for clinical signs of colitis including bodyweight loss, loose stools and/or diarrhoea and presence of occult or gross blood in the stools. At Day +12 or when animals reach humane endpoints, colons are dissected out, to measure their lengths and observe their content. A sample of distal colon is processed for histopathology. […]
Histological injury and inflammation are scored as described in Gilbert et al (2012) (Gilbert S. et al. (2012) EMBO Mol. Med. 4: 109-124). […]

[3] = both sexes, 250 mg BID, Day 12, elderly subjects, arithmetic mean
[4] = both sexes, 500 mg BID, Day 12, elderly subjects, arithmetic mean
[5] = 100 mg BID, Day 12, elderly subjects, N=1

Structure (SMILES): CC(=O)Nc1nnc(N2CCN([C@@H](C)c3ccc4c(c3)OCO4)CC2)s1 [Compound (I)]
- blood-brain-barrier penetration (detection in CSF) ([1]; Day 12 after multiple doses): penetrated through the blood-brain-barrier
- Cmax [1, 3]: 92.5 ng/mL
- AUC [1, 3]: 485 ng·h/mL
- half-life ([1]; both sexes, 250 mg BID, Day 12, elderly subjects, arithmetic mean, read-out: t1/2 (converted)): 10.3 h
- Tmax ([1]; both sexes, 250 mg BID, Day 12, elderly subjects): 3 h
- Cmax [1, 4]: 282 ng/mL
- AUC [1, 4]: 1400 ng·h/mL
- half-life ([1]; both sexes, 500 mg BID, Day 12, elderly subjects, arithmetic mean, read-out: t1/2 (converted)): 10.8 h
- Tmax ([1]; both sexes, 500 mg BID, Day 12, elderly subjects): 2.02 h
- half-life ([1]; both sexes, 100 to 500 mg BID, read-out: terminal half-life (t½), range of means): 3.9 to 10.7 h
- Cmax [1, 5]: 46.7 ng/mL
- AUC [1, 5]: 236 ng·h/mL
- half-life ([1]; 100 mg BID, Day 12, elderly subjects, N=1, read-out: t1/2 (converted)): 5.78 h
- Tmax [1, 5]: 4.03 h
- behavioural tests (Irwin battery, rotarod, wire suspension, beam walk, pasta gnawing) [2]: functional benefit (motor improvement)
- intraneuronal aggregated pser129-Asyn deposits by histology [2]: reduction of the number of intraneuronal aggregated pser129-Asyn deposits
- disease score (body weight loss, stool, blood in feces, general appearance) (DSS colitis model): decrease in the disease score
- tissue inflammation by histology examination (DSS colitis model): significant decrease of tissue inflammation
